Measured values taken from patent US9181258B2, “Substituted 3,4-dihydropyrrolo[1,2-a]pyrazin-1(2H)-ones as protein kinase inhibitors” (NERVIANO MEDICAL SCIENCES S.R.L., priority 2011, dated 2015).
Counter-ions that a name gives are not always drawn.

Legend:
human PIM1 = human PIM1 (Homo sapiens (Human), UniProt P11309); assay: Biochemical assay for inhibitors of PIM1 kinase activity (trans-phosphorylation, Dowex technique); conditions: ATP 200 μM, Aktide 25 μM, enzyme 1 nM; read-out: PIM-1 IC50
Experimental: Biochemical Assay for Inhibitors of PIM1 Kinase Activity
The inhibitory activity of putative kinase inhibitors and the potency of selected compounds were determined using a trans-phosphorylation assay.
Specific peptide or protein substrates were trans-phosphorylated by their specific ser-thr or tyr kinase in the presence of ATP traced with ^33P-γ-ATP, and in the presence of their own optimal buffer and cofactors.
At the end of the phosphorylation reaction, more than 98% unlabeled ATP and radioactive ATP were captured by an excess of the ion exchange dowex resin; the resin then settled down to the bottom of the reaction plate by gravity. Supernatant was subsequently withdrawn and transferred into a counting plate, then evaluated by β-counting.
Reagents/Assay Conditions i. Dowex Resin Preparation
500 g of wet resin (SIGMA, custom prepared resin DOWEX 1×8 200-400 mesh, 2.5 Kg) were weighed out and diluted to 2 L in 150 mM sodium formate, pH 3.00.
The resin was allowed to settle down (some hours) and then the supernatant was discarded.
After three washes as above over a couple of days, the resin was allowed to settle and two volumes (wrt the resin volume) of 150 mM sodium formate buffer were added.
The pH was then measured and should have been around 3.00.
The washed resin was stable for more than one week; the stock resin was kept at 4° C. before use.
The buffer for PIM1 assay was composed of HEPES 50 mM, at pH 7.5, with 10 mM MgCl2, 1 mM DTT, 3 μM NaVO3, and 0.2 mg/mL BSA.
Full-length human PIM1 was expressed and purified as described in Bullock A N, et al., J. Biol. Chem. 2005, 280, 41675-82.
1.7 μM PIM1 was incubated 1 h at 28° C. in the presence of 125 μM ATP.
ATP concentration: 200 μM; ^33P-γ-ATP: 6 nM; Enzyme concentration: 1 nM Substrate concentration Aktide (Chemical Abstract Service Registry Number 324029-01-8): 25 μM iv. Robotized Dowex Assay
The test mix consisted of:
1) 3× Enzyme mix (done in Kinase Buffer 3×), 5 μL/well
2) 3× substrate and ATP mix (done in ddH2O), together with ^33P-γ-ATP, 5 μL/well 3) 3× test compounds (diluted into ddH2O—3% DMSO)—5 μL/well See below for compound dilution and assay scheme […]
An automated station (Biomek FX, Beckman) was used for serial dilutions, producing 1:3 dilutions in 100% DMSO, from line A1 to A10, for all the compounds in the column.
Data were analyzed by an internally customized version of the “Assay Explorer” SW package, which provided sigmoidal fitting of the ten-dilution curves for IC50 determination in secondary assay/hit confirmation routines.

human PIM2 = human PIM2 (Homo sapiens (Human), UniProt Q9P1W9); assay: PIM2 kinase inhibition assay: Dowex technique; type: biochemical; conditions: ATP 4 μM, Aktide 5 μM, enzyme 1.5 nM; read-out: PIM-2 IC50
Experimental: Method for PIM2 Kinase Inhibition Assay: Dowex Technique
The buffer for PIM2 assay was composed of HEPES 50 mM, at pH 7.5, with 1 mM MgCl2, 1 mM DTT, 3 μM Na3VO4, and 0.2 mg/mL BSA.
Full-length human PIM2 was expressed and purified as described in Fedorov O, et al., PNAS 2007 104, 51, 20523-28. ii. Assay Conditions (Final Concentrations)
Enzyme concentration=1.5 nM; ATP=4 μM; ^33P-γ-ATP=1 nM
Aktide substrate (Chemical Abstract Service Registry Number 324029-01-8)=5 μM iii. Robotized Dowex Assay
See above: same procedure as described for PIM1.

BaF3-PIM1 cells = assay: In vitro cell proliferation assay (CellTiter-Glo), BaF3-PIM1; type: cell-based; conditions: 72 hours
Experimental: In Vitro Cell Proliferation Assay
BaF3-PIM1 and MV-4-11 cells were seeded at 125 cells/well and 1250 cells/well respectively in a 384-well white plates in complete medium and treated with compounds dissolved in 0.1% DMSO, 24 h after seeding.
The cells were incubated at 37° C. and 5% CO2 and after 72 hours the plates were processed using CellTiter-Glo assay (Promega) following the manufacturer's instruction.
CellTiter-Glo was a homogenous method based on the quantification of the ATP present, an indicator of metabolitically active cells. ATP was quantified using a system based on luciferase and D-luciferin resulting into light generation. The luminescent signal was proportional to the number of cells present in culture.
Briefly 25 μl/well reagent solution were added to each wells and after 5 minutes shacking microplates were red by Envision (PerkinElmer) luminometer. The luminescent signal was proportional to the number of cells present in culture.
Inhibitory activity was evaluated comparing treated versus control data using Assay Explorer (MDL) program. IC50 was calculated using sigmoidal interpolation curve.

Chain of human PIM1 (P11309 whole entry): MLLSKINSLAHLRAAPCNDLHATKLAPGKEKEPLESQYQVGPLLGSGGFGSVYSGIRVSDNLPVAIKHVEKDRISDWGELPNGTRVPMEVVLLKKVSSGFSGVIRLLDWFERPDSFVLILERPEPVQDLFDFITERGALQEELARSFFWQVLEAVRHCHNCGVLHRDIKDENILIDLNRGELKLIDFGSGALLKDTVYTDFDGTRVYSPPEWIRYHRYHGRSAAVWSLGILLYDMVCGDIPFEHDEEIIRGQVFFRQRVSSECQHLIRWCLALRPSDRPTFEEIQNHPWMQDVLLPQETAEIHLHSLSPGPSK
Chain of human PIM2 (Q9P1W9 whole entry): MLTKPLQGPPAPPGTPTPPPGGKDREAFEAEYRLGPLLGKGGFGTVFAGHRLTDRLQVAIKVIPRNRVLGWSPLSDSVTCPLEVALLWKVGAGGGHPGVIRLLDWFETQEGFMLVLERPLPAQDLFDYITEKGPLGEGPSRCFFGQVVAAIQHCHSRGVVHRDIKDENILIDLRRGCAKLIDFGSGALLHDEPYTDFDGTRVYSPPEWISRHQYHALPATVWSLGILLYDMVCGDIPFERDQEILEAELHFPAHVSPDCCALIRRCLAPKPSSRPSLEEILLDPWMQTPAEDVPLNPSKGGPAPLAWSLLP

Compound | IC50 (human PIM1) [nM] | IC50 (human PIM2) [nM] | IC50 (BaF3-PIM1 cells) [nM]
NCCC1CNC(=O)c2cc(-c3cccc(Cl)c3)c(-c3ccccc3)n21 (stereo not drawn) [Compound 17, 4-(2-aminoethyl)-7-(3-chlorophenyl)-6-phenyl-3,4-dihydropyrrolo[1,2-a]pyrazin-1(2H)-one trifluoroacetate] | 34 | 117 | 450
NCCC1CNC(=O)c2cc(-c3cccc(OC(F)(F)F)c3)c(-c3cccc(N)c3)n21 (stereo not drawn) [Compound 32, 4-(2-aminoethyl)-6-(3-aminophenyl)-7-[3-(trifluoromethoxy)phenyl]-3,4-dihydropyrrolo[1,2-a]pyrazin-1(2H)-one hydrochloride] | 8 | 69 | 2020
NCCC1CNC(=O)c2cc(-c3cccc(C(F)(F)F)c3)c(-c3ccc(CO)cc3)n21 (stereo not drawn) [Compound 38, 4-(2-aminoethyl)-6-[4-(hydroxymethyl)phenyl]-7-[3-(trifluoromethyl)phenyl]-3,4-dihydropyrrolo[1,2-a]pyrazin-1(2H)-one hydrochloride] | 20 | 102 | 3030
NCCC1CNC(=O)c2cc(-c3cccc(C(F)(F)F)c3)c(-c3ccc(O)cc3)n21 (stereo not drawn) [Compound 43, 4-(2-aminoethyl)-6-(4-hydroxyphenyl)-7-[3-(trifluoromethyl)phenyl]-3,4-dihydropyrrolo[1,2-a]pyrazin-1(2H)-one hydrochloride] | 12 | 21 | 7000
NCCC1CNC(=O)c2cc(-c3ccnc(Cl)c3)c(-c3ccc(CO)cc3)n21 (stereo not drawn) [Compound 44, 4-(2-aminoethyl)-7-(2-chloropyridin-4-yl)-6-[4-(hydroxymethyl)phenyl]-3,4-dihydropyrrolo[1,2-a]pyrazin-1(2H)-one hydrochloride] | 24 | 110 | 6570
CN(C)CCNC(=O)c1ccc(-c2c(-c3cccc(OC(F)(F)F)c3)cc3n2C(CCO)CNC3=O)cc1 (stereo not drawn) [Compound 78, N-[2-(dimethylamino)ethyl]-4-{4-(2-hydroxyethyl)-1-oxo-7-[3-(trifluoromethoxy)phenyl]-1,2,3,4-tetrahydropyrrolo[1,2-a]pyrazin-6-yl}benzamide trifluoroacetate] | 6 | 90 | 4070
CN(C)C(=O)c1ccc(-c2c(-c3cccc(OC(F)(F)F)c3)cc3n2C(CCO)CNC3=O)cc1 (stereo not drawn) [Compound 79, 4-{4-(2-hydroxyethyl)-1-oxo-7-[3-(trifluoromethoxy)phenyl]-1,2,3,4-tetrahydropyrrolo[1,2-a]pyrazin-6-yl}-N,N-dimethylbenzamide] | 13 | 93 | 1220

Second part, the compound after the results:

IC50 (human PIM1) [nM] | IC50 (human PIM2) [nM] | IC50 (BaF3-PIM1 cells) [nM] | Compound
4 | 15 | 598 | NCCC1CNC(=O)c2cc(-c3cccc(OC(F)(F)F)c3)c(-c3ccc(CO)cc3)n21 (stereo not drawn) [Compound 33, 4-(2-aminoethyl)-6-[4-(hydroxymethyl)phenyl]-7-[3-(trifluoromethoxy)phenyl]-3,4-dihydropyrrolo[1,2-a]pyrazin-1(2H)-one hydrochloride]
7 | 58 | 2320 | NC(=O)c1ccc(-c2c(-c3cccc(OC(F)(F)F)c3)cc3n2C(CCO)CNC3=O)cc1 (stereo not drawn) [Compound 77, 4-{4-(2-hydroxyethyl)-1-oxo-7-[3-(trifluoromethoxy)phenyl]-1,2,3,4-tetrahydropyrrolo[1,2-a]pyrazin-6-yl}benzamide]
20 | 75 | 3810 | CNC(=O)c1ccc(-c2c(-c3cccc(OC(F)(F)F)c3)cc3n2C(CCO)CNC3=O)cc1 (stereo not drawn) [Compound 80, 4-{4-(2-hydroxyethyl)-1-oxo-7-[3-(trifluoromethoxy)phenyl]-1,2,3,4-tetrahydropyrrolo[1,2-a]pyrazin-6-yl}-N-methylbenzamide]
11 | 69 | 6050 | CN1CCC(NC(=O)c2ccc(-c3c(-c4cccc(OC(F)(F)F)c4)cc4n3C(CCO)CNC4=O)cc2)CC1 (stereo not drawn) [Compound 81, 4-{4-(2-hydroxyethyl)-1-oxo-7-[3-(trifluoromethoxy)phenyl]-1,2,3,4-tetrahydropyrrolo[1,2-a]pyrazin-6-yl}-N-(1-methylpiperidin-4-yl)benzamide trifluoroacetate]
11 | 90 | 224 | O=C1NCC(CCO)n2c1cc(-c1cccc(OC(F)(F)F)c1)c2-c1ccc(CO)cc1 (stereo not drawn) [Compound 84, 4-(2-hydroxyethyl)-6-[4-(hydroxymethyl)phenyl]-7-[3-(trifluoromethoxy)phenyl]-3,4-dihydropyrrolo[1,2-a]pyrazin-1(2H)-one]
1 | 16 | 699 | NCC[C@H]1CNC(=O)c2cc(-c3cccc(OC(F)(F)F)c3)c(-c3ccc(O)cc3)n21 [Compound 93, (4S)-4-(2-aminoethyl)-6-(4-hydroxyphenyl)-7-[3-(trifluoromethoxy)phenyl]-3,4-dihydropyrrolo[1,2-a]pyrazin-1(2H)-one hydrochloride]
1 | 3 | 5470 | CS(=O)(=O)c1ccc(-c2c(-c3cccc(OC(F)(F)F)c3)cc3n2[C@@H](CCN)CNC3=O)cc1 [Compound 96, (4S)-4-(2-aminoethyl)-6-[4-(methylsulfonyl)phenyl]-7-[3-(trifluoromethoxy)phenyl]-3,4-dihydropyrrolo[1,2-a]pyrazin-1(2H)-one hydrochloride]
4 | 48 | 7000 | NCCC[C@H]1CNC(=O)c2cc(-c3cccc(OC(F)(F)F)c3)c(-c3ccc(O)cc3)n21 [Compound 104, (4S)-4-(3-aminopropyl)-6-(4-hydroxyphenyl)-7-[3-(trifluoromethoxy)phenyl]-3,4-dihydropyrrolo[1,2-a]pyrazin-1(2H)-one hydrochloride]
16 | 109 | 6950 | NCCC[C@H]1CNC(=O)c2cc(-c3cccc(OC(F)(F)F)c3)c(-c3ccc(CO)cc3)n21 [Compound 105, (4S)-4-(3-aminopropyl)-6-[4-(hydroxymethyl)phenyl]-7-[3-(trifluoromethoxy)phenyl]-3,4-dihydropyrrolo[1,2-a]pyrazin-1(2H)-one hydrochloride]
27 | 99 | 210 | CN1CCN(Cc2ccc(-c3c(-c4cccc(OC(F)(F)F)c4)cc4n3[C@@H](CCCl)CNC4=O)cc2)CC1 [Compound 106, (4S)-4-(2-chloroethyl)-6-{4-[(4-methylpiperazin-1-yl)methyl]phenyl}-7-[3-(trifluoromethoxy)phenyl]-3,4-dihydropyrrolo[1,2-a]pyrazin-1(2H)-one]
11 | 82 | 6510 | CS(=O)(=O)c1ccc(-c2c(-c3cccc(OC(F)(F)F)c3)cc3n2[C@@H](CCCN)CNC3=O)cc1 [Compound 109, (4S)-4-(3-aminopropyl)-6-[4-(methylsulfonyl)phenyl]-7-[3-(trifluoromethoxy)phenyl]-3,4-dihydropyrrolo[1,2-a]pyrazin-1(2H)-one hydrochloride]
